From patent publication US20070179154A1, “Coumarin derivatives, process for their production and use thereof” (Takeda Pharmaceutical Company Limited, priority 2002, published 2007)

| Structure (SMILES) | melting point |
| --- | --- |
| CCOC(=O)CCc1cccc(-c2c(CC(=O)Nc3ccc(F)cc3C(F)(F)F)c(=O)oc3cc(Cl)c(F)cc23)c1 [Example 11, ethyl 3-[3-[7-chloro-6-fluoro-3-[2-[[4-fluoro-2-(trifluoromethyl)phenyl]amino]-2-oxoethyl]-2-oxo-2H-chromen-4-yl]phenyl]propionate] | 142 to 144 °C |
| O=C(O)/C=C/c1cccc(-c2c(CC(=O)Nc3ccc(F)cc3C(F)(F)F)c(=O)oc3cc(Cl)c(F)cc23)c1 [Example 17, (2E)-3-[3-[7-chloro-6-fluoro-3-[2-[[4-fluoro-2-(trifluoromethyl)phenyl]amino]-2-oxoethyl]-2-oxo-2H-chromen-4-yl]phenyl]-2-propenoic acid] | 245 to 247 °C |
| Cc1cc2oc(=O)c(CC(=O)Nc3ccc(F)cc3C(F)(F)F)c(-c3cccc(/C=C/C(=O)O)c3)c2cc1Cl [Example 16, (2E)-3-[3-[6-chloro-3-(2-[[4-fluoro-2-(trifluoromethyl)phenyl]amino]-2-oxoethyl)-7-methyl-2-oxo-2H-chromen-4-yl]phenyl]-2-propenoic acid] | 272 to 274 °C |
| CCOC(=O)/C=C/c1cc(-c2c(CC(=O)Nc3ccc(Cl)cc3C(F)(F)F)c(=O)oc3cc(Cl)c(C)cc23)ccc1F [Example 3, ethyl (2E)-3-[5-[7-chloro-3-[2-[[4-chloro-2-(trifluoromethyl)phenyl]amino]-2-oxoethyl]-6-methyl-2-oxo-2H-chromen-4-yl]-2-fluorophenyl]-2-propenoate] | 160 to 162 °C |
| CCOC(=O)/C=C/c1cccc(-c2c(CC(=O)Nc3ccc(F)cc3C(F)(F)F)c(=O)oc3cc(Cl)c(F)cc23)c1 [Example 6, ethyl (2E)-3-[3-[7-chloro-6-fluoro-3-[2-[[4-fluoro-2-(trifluoromethyl)phenyl]amino]-2-oxoethyl]-2-oxo-2H-chromen-4-yl]phenyl}-2-propenoate] | 151 to 153 °C |
| CCOC(=O)/C=C/c1cccc(-c2c(CC(=O)Nc3ccc(F)cc3C(F)(F)F)c(=O)oc3cc(C)c(Cl)cc23)c1 [Example 5, ethyl (2E)-3-[3-[6-chloro-3-[2-[[4-fluoro-2-(trifluoromethyl)phenyl]amino]-2-oxoethyl]-7-methyl-2-oxo-2H-chromen-4-yl]phenyl]-2-propenoate] | 206 to 209 °C |
| CCOC(=O)CCc1cccc(-c2c(CC(=O)Nc3ccc(F)cc3C(F)(F)F)c(=O)oc3cc(Cl)ccc23)c1 [Example 12, ethyl 3-[3-[7-chloro-3-[2-[[4-fluoro-2-(trifluoromethyl)phenyl]amino]-2-oxoethyl]-2-oxo-2H-chromen-4-yl]phenyl]propionate] | 164 to 165 °C |
| Cc1cc2c(-c3cccc(/C=C/C(=O)O)c3)c(CC(=O)Nc3ccccc3C(F)(F)F)c(=O)oc2cc1Cl [Example 15, (2E)-3-[3-[7-chloro-6-methyl-2-oxo-3-(2-oxo-2-[[2-(trifluoromethyl)phenyl]amino]ethyl)-2H-chromen-4-yl]phenyl]-2-propenoic acid] | 252 to 254 °C |
| CCOC(=O)CCc1cccc(-c2c(CC(=O)Nc3ccccc3C(F)(F)F)c(=O)oc3cc(Cl)c(C)cc23)c1 [Example 9, ethyl 3-[3-[7-chloro-6-methyl-3-[2-[[2-(trifluoromethyl)phenyl]amino]-2-oxoethyl]-2-oxo-2H-chromen-4-yl]phenyl]propionate] | 115 to 117 °C |
| CCOC(=O)/C=C/c1cccc(-c2c(CC(=O)Nc3ccc(F)cc3C(F)(F)F)c(=O)oc3cc(Cl)ccc23)c1 [Example 7, ethyl (2E)-3-[3-[7-chloro-3-[2-[[4-fluoro-2-(trifluoromethyl)phenyl]amino]-2-oxoethyl]-2-oxo-2H-chromen-4-yl]phenyl]-2-propenoate] | 166 to 169 °C |
| Cc1cc2c(-c3cccc(C(=O)O)c3)c(CC(=O)Nc3ccc(Cl)cc3C(F)(F)F)c(=O)oc2cc1Cl [Example 1, 3-[7-chloro-3-[2-[[4-chloro-2-(trifluoromethyl)phenyl]amino]-2-oxoethyl]-6-methyl-2-oxo-2H-chromen-4-yl]benzoic acid] | 270 to 272 °C |
| CCOC(=O)CCc1cccc(-c2c(CC(=O)Nc3ccc(F)cc3C(F)(F)F)c(=O)oc3cc(C)c(Cl)cc23)c1 [Example 10, ethyl 3-[3-[6-chloro-3-[2-[[4-fluoro-2-(trifluoromethyl)phenyl]amino]-2-oxoethyl]-7-methyl-2-oxo-2H-chromen-4-yl]phenyl]propionate] | 158 to 160 °C |

The next lines start with the values.

| melting point | Structure (SMILES) |
| --- | --- |
| 230 to 231 °C | CCOC(=O)CS(=O)(=O)Cc1cccc(-c2c(CC(=O)Nc3ccc(F)cc3C(F)(F)F)c(=O)oc3cc(Cl)c(C)cc23)c1 [Example 64, Ethyl ({3-[7-chloro-3-(2-{[4-fluoro-2-(trifluoromethyl)phenyl]amino}-2-oxoethyl)-6-methyl-2-oxo-2H-chromen-4-yl]benzyl}sulfonyl)acetate] |
| 206 to 208 °C | Cc1cc2c(-c3cccc(C(=O)NC(C)(C)C)c3)c(CC(=O)Nc3ccc(Cl)cc3C(F)(F)F)c(=O)oc2cc1Cl [Example 122] |
| 240 to 242 °C | Cc1cc2oc(=O)c(CC(=O)Nc3ccc(F)cc3C(F)(F)F)c(-c3cccc(CCC(=O)O)c3)c2cc1Cl [Example 21, 3-[3-[6-chloro-3-(2-[[4-fluoro-2-(trifluoromethyl)phenyl]amino]-2-oxoethyl)-7-methyl-2-oxo-2H-chromen-4-yl]phenyl]propionic acid] |
| 230 to 232 °C | O=C(O)CCc1cccc(-c2c(CC(=O)Nc3ccc(F)cc3C(F)(F)F)c(=O)oc3ccccc23)c1 [Example 24, 3-[3-[3-[2-[[4-fluoro-2-(trifluoromethyl)phenyl]amino]-2-oxoethyl]-2-oxo-2H-chromen-4-yl]phenyl]propionic acid] |
| 153 to 155 °C | CCOC(=O)CNCc1cccc(-c2c(CC(=O)Nc3ccc(F)cc3C(F)(F)F)c(=O)oc3cc(Cl)c(C)cc23)c1 [Example 62, Ethyl ({3-[7-chloro-3-(2-{[4-fluoro-2-(trifluoromethyl)phenyl]amino}-2-oxoethyl)-6-methyl-2-oxo-2H-chromen-4-yl]benzyl}amino)acetate] |
| 150 °C (dec.) | Cc1cc2c(-c3cccc(CCC(=O)O)c3)c(CC(=O)Nc3ccccc3C(F)(F)F)c(=O)oc2cc1Cl [Example 20, 3-[3-[7-chloro-6-methyl-2-oxo-3-(2-oxo-2-[[2-(trifluoromethyl)phenyl]amino]ethyl)-2H-chromen-4-yl]phenyl]propionic acid] |
| 216 to 218 °C | Cc1cc2c(-c3cccc(/C=C/c4nnn[nH]4)c3)c(CC(=O)Nc3ccc(F)cc3C(F)(F)F)c(=O)oc2cc1Cl [Example 41, 2-(7-chloro-6-methyl-2-oxo-4-{3-[(E)-2-(1H-tetrazol-5-yl)ethenyl]phenyl}-2H-chromen-3-yl)-N-[4-fluoro-2-(trifluoromethyl)phenyl]acetamide] |
| 178 to 180 °C | Cc1cc2c(-c3cccc(-c4noc(=S)[nH]4)c3)c(CC(=O)Nc3ccc(F)cc3C(F)(F)F)c(=O)oc2cc1Cl [Example 102, 2-{7-chloro-6-methyl-2-oxo-4-[3-(5-thioxo-4,5-dihydro-1,2,4-oxadiazol-3-yl)phenyl]-2H-chromen-3-yl}-N-[4-fluoro-2-(trifluoromethyl)phenyl]acetamide] |
| 285 to 287 °C | Cc1cc2c(-c3cccc(-c4noc(=O)[nH]4)c3)c(CC(=O)Nc3ccc(F)cc3C(F)(F)F)c(=O)oc2cc1Cl [Example 99, 2-{7-chloro-6-methyl-2-oxo-4-[3-(5-oxo-4,5-dihydro-1,2,4-oxadiazol-3-yl)phenyl]-2H-chromen-3-yl}-N-[4-fluoro-2-(trifluoromethyl)phenyl]acetamide] |
| 244 to 246 °C | Cc1cc2c(-c3cccc(CCc4nnn[nH]4)c3)c(CC(=O)Nc3ccc(F)cc3C(F)(F)F)c(=O)oc2cc1Cl [Example 98] |
| 130 to 132 °C | COC(=O)c1cccc(-c2c(CC(=O)Nc3ccc(Cl)cc3C(F)(F)F)c(=O)oc3cc(Cl)c(CN4CCN(c5ccccc5)CC4)cc23)c1 [Example 109] |
| 211 to 212 °C | O=C(O)CCc1cccc(-c2c(CC(=O)Nc3ccc(F)cc3C(F)(F)F)c(=O)oc3cc(Cl)ccc23)c1 [Example 23, 3-[3-[7-chloro-3-[2-[[4-fluoro-2-(trifluoromethyl)phenyl]amino]-2-oxoethyl]-2-oxo-2H-chromen-4-yl]phenyl]propionic acid] |
| 254 to 257 °C | O=C(O)/C=C/c1cccc(-c2c(CC(=O)Nc3ccc(F)cc3C(F)(F)F)c(=O)oc3cc(Cl)ccc23)c1 [Example 18, (2E)-3-[3-[7-chloro-3-[2-[[4-fluoro-2-(trifluoromethyl)phenyl]amino]-2-oxoethyl]-2-oxo-2H-chromen-4-yl]phenyl]-2-propenoic acid] |
| 215 to 217 °C | Cc1cc2c(-c3cccc(C(=O)NC(C)C)c3)c(CC(=O)Nc3ccc(Cl)cc3C(F)(F)F)c(=O)oc2cc1Cl [Example 121] |
| 216 to 218 °C | CCOC(=O)/C=C/C=C/c1cccc(-c2c(CC(=O)Nc3ccc(F)cc3C(F)(F)F)c(=O)oc3cc(Cl)c(C)cc23)c1 [Example 51, Ethyl (2E,4E)-5-[3-(7-chloro-3-{2-[4-fluoro-2-(trifluoromethyl)anilino]-2-oxoethyl}-6-methyl-2-oxo-2H-chromen-4-yl)phenyl]-2,4-pentadienoate] |
| 269 to 271 °C (dec.) | Cc1cc2c(-c3cccc(-c4nsc(=O)[nH]4)c3)c(CC(=O)Nc3ccc(F)cc3C(F)(F)F)c(=O)oc2cc1Cl [Example 104, 2-{7-chloro-6-methyl-2-oxo-4-[3-(5-oxo-4,5-dihydro-1,2,4-thiadiazol-3-yl)phenyl]-2H-chromen-3-yl}-N-[4-fluoro-2-(trifluoromethyl)phenyl]acetamide] |
| 277 to 279 °C | Cc1cc2c(-c3ccc(F)c(/C=C/C(=O)O)c3)c(CC(=O)Nc3ccc(Cl)cc3C(F)(F)F)c(=O)oc2cc1Cl [Example 19, (2E)-3-[5-[7-chloro-3-[2-[[4-chloro-2-(trifluoromethyl)phenyl]amino]-2-oxoethyl]-6-methyl-2-oxo-2H-chromen-4-yl]-2-fluorophenyl]-2-propenoic acid] |
| 161 to 164 °C | Cc1cc2c(-c3cccc(Cc4noc(=O)[nH]4)c3)c(CC(=O)Nc3ccc(F)cc3C(F)(F)F)c(=O)oc2cc1Cl [Example 100] |
